Like-named read-outs stand apart in the source and are kept apart here.
Key:
[1] = cited from earlier work
[2] = neat substance; BuAc (reference) = 1.00; cited from earlier work
[3] = tested on: Staphylococcus aureus (ATCC 6538), Pseudomonas aeruginosa (ATCC 9027), Salmonella Choleraesuis (ATCC 13312); assay: Coverslip assay: composition applied to dried bacteria on glass coverslips, evaporated to dryness, nutrient agar contact; assay type: cell-based
Procedure: These bacteria cultures can be diluted to obtain concentrations of about 10^7 through about 10^3 CFU/ml and 10 μl of each dilution can be spread onto a glass coverslip with a sterile loop and allowed to dry. Afterwards, the coverslips containing 10^5 to 10^2 CFU can be placed inside of petri dish. Different concentrations of the amount of substance can be applied to the cover slips with a nebulizer as described by Germicidal Spray Products as Disinfectants, Method 961.02, AOAC International (2004). As a non-limiting example, isopropyl alcohol (IPA) and diacetone alcohol (DAA) can be assessed as above described by obtaining aqueous mixtures of IPA at concentrations of 55% w/w, 20% w/w, and 5% w/w. […] A nutrient agar lightly pressed against the coverslips allows contact of microorganisms on the coverslips with the nutrient agar. The nutrient agar can be incubated for 48 hours at 37° C. in contact with the coverslips and then observed for microbial reproduction in the region where the coverslips contact the nutrient agar. Untreated coverslips can be used as a positive control. Particular examples of utilizing the method are set forth below.

[4] = n-octanol/water; cited from earlier work
[5] = Relative evaporation rates; assay type: physicochemical; conditions: BuAc (reference) = 1.00
Excerpt: (§1) Line C represents the change in fluid volume of a 20% (v/v) solution of diacetone alcohol in water caused by evaporation (a particular embodiment of the inventive differential evaporation antimicrobial composition), while line D represents the change in fluid phase concentration of the same 20% (v/v) diacetone alcohol in water occurring during the same fluid volume change. In this case, complete evaporation can occur in approximately 75 time units. Comparatively, the 20% (v/v) diacetone alcohol in water can be engaged with a population of microorganisms for a greater duration of time than the conventional antimicrobial composition without reapplication of an additional amount because evaporation occurs at a slower rate as shown by Table 3.

[6] = Evaporation of fluid volume over time (FIG. 2); assay type: physicochemical; conditions: 20% (v/v) in water
Excerpt: as §1
By comparison, Line C represents the change in fluid volume of a 20% (v/v) solution of diacetone alcohol in water, while line D represents the change in concentration of diacetone alcohol in water. As to this non-limiting example, if 10% diacetone alcohol (v/v) is the minimum concentration to provide an antimicrobial composition, then the entire 75 time units provide an antimicrobial composition because the concentration of diacetone alcohol increases over the 75 time units in accordance with embodiments of differential evaporation potentiated antimicrobial compositions.

[7] = tested on: Staphylococcus aureus (ATCC 6538); assay: Potentiation Assay (non-evaporative vs evaporative procedure); assay type: cell-based; conditions: for Evaporated Log 10 Reduction: evaporated in centrifuge 60 minutes; for Non-evaporated Log 10 Reduction: set 60 minutes
Procedure: Now referring primarily to Table 5 and FIG. […] The non-evaporative and evaporative procedures included 50 μL of an overnight Staphylococcus aureus (ATCC 6538, ˜10^9 CFU/mL) culture added to each 2 mL sterile plastic vial with a conical bottom and dried without capping in a centrifuge for 30 minutes. One hundred microliters of the solution being tested was added to each vial (as triplicate vials) either let set for 60 minutes (non-evaporative) or evaporated in a centrifuge for 60 minutes (evaporative), with time to evaporate being determined by each DAA mixtures own evaporative characteristic. To the non-evaporated vials, 400 μL Mueller Hinton Broth (MHB) was added to the vial and 100 μL was plated onto Nutrient agar (NA). To the evaporated vials, 500 μL of MHB was added and 100 μL was plated onto NA. Plates were incubated overnight at ˜37° C. and counted (the “Potentiation Assay”).

[8] = azeotrope in water, Table 2, listed as Diacetone Alcohol
[9] = 6% v/v active component, 94% water
[10] = 10% v/v active component, 90% water
[11] = 3% v/v active component, 97% water
[12] = 15% v/v active component, 85% water

SMILES: CC(=O)CC(C)(C)O [DAA, 4-hydroxy-4-methyl-2-pentanone]
- azeotrope % mol/mol ([1]; azeotrope in water, Table 2): 2.2% mol/mol
- azeotrope % vol/vol [1, 8]: 13.43% vol/vol
- azeotrope % w/w [1, 8]: 12.70% w/w
- azeotrope % w/w ([1]; azeotrope in water, Table 2, listed as diacetone alcohol): about 12.70 % w/w
- azeotrope point ([1]; diacetone alcohol and water): about 12.7 grams per 100 grams of the com
- Relative Evaporation Rates [2]: 0.14
- Evaporated from coverslip [3, 9]: X (denotes a plate where the number of colonies represented less than 50% of the number of colonies counted in the corresponding positive control plate, representing reduction of the number of microorganisms (<2 Log10 reduction).)
- Evaporated from coverslip [3, 10]: XX (denotes a plate where the number of colonies represented less than 10% of the number of colonies counted in the corresponding positive control plate, representing a significant reduction of the number of microorganisms (>3 Log10 reduction).)
- Evaporated from coverslip ([3]; 60% v/v active component, 40% water): XXX (denotes a plate in which zero colonies were present, representing complete reduction of the number of microorganisms (>5 Log10 reduction).)
- reduction of populations of microorganisms, comparison ([3]; concentrations at which water evaporated at a greater rate than DAA from the mixture): greater reduction of populations of microorganisms than 70% IPA (v/v)
- Log P [4]: about −0.14
- Relative Evaporation Rates (estimated) ([5]; 20% (v/v)): 0.31
- Relative Evaporation Rates (estimated) ([5]; 40% (v/v)): 0.27
- complete evaporation [6]: approximately 75 time units
- Evaporated Log 10 Reduction [7, 11]: X (denotes a plate where the number of colonies represented less than 50% of the number of colonies counted in the corresponding positive control plate, representing reduction of the number of microorganisms (<2 Log10 reduction).)
- Non-evaporated Log 10 Reduction [7, 11]: ---0--- (denotes a plate where the numbers of colonies represented more than 50% of the number of colonies counted in the corresponding positive control plate, representing no significant reduction in the population of viable microorganisms (0 to 1 Log10 reduction).)
- Evaporated Log 10 Reduction [7, 9]: X (denotes a plate where the number of colonies represented less than 50% of the number of colonies counted in the corresponding positive control plate, representing reduction of the number of microorganisms (<2 Log10 reduction).)
- Non-evaporated Log 10 Reduction [7, 9]: ---0--- (denotes a plate where the numbers of colonies represented more than 50% of the number of colonies counted in the corresponding positive control plate, representing no significant reduction in the population of viable microorganisms (0 to 1 Log10 reduction).)
- Evaporated Log 10 Reduction [7, 10]: XX (denotes a plate where the number of colonies represented less than 10% of the number of colonies counted in the corresponding positive control plate, representing a significant reduction of the number of microorganisms (>3 Log10 reduction).)
- Non-evaporated Log 10 Reduction [7, 10]: ---0--- (denotes a plate where the numbers of colonies represented more than 50% of the number of colonies counted in the corresponding positive control plate, representing no significant reduction in the population of viable microorganisms (0 to 1 Log10 reduction).)
- Evaporated Log 10 Reduction [7, 12]: XXX (denotes a plate in which zero colonies were present, representing complete reduction of the number of microorganisms (>5 Log10 reduction).)
- Non-evaporated Log 10 Reduction [7, 12]: XXx (denotes a plate where the number of colonies represented less than 1% of the number of colonies counted in the corresponding positive control plate, representing nearly complete reduction of the number of microorganisms (>4 Log10 reduction).)
- evaporative potentiation of antimicrobial efficacy ([7]; evaporative vs non-evaporative procedure, concentrations tested in water): can be potentiated by evaporation
